Laboratory results taken from patent publication US5273972A, “[(2-diakylaminomethyl)-3-quinuclidinyl]-benzamides and benzoates” (priority 1992, dated 1993).

Tests used:
cisplatin-induced emesis = assay: Cisplatin-induced emesis in dogs (antiemetic); assay type: in vivo, dog; conditions: for inhibition in vivo at 1 mg/kg: Canis lupus familiaris, iv, 5 h, read-out: % inhibition of cisplatin-induced emesis
Method: The procedure used to test compounds of the present invention for antiemetic properties is a modification of the method of Gylys et al, Res. Commun, Chem. Pathol. Pharm., 23, 61(1979).
Adult, mongrel, unfasted dogs of both sexes were randomly assigned into treatment groups, with each treatment group consisting of four dogs. On the dosing day all dogs were given cisplatin, 3.0 mg/kg, intravenously. Sixty minutes later, the dogs in the control treatment group were given deionized water, 0.1 ml/kg intravenously. The dogs in the test group were given a test compound at an appropriate dose intravenously. All doses were administered as a solution by means of a syringe and needle, and each dog's emetic episodes were recorded for 5 hours after the administration of cisplatin.

[1] = tested on: 5-HT (serotonin)-induced contractions of the guinea pig ileum; assay: Blockade of serotonin-induced contractions of guinea pig ileum (5-HT antagonist activity); assay type: cell-based; conditions: 10^-6 M serotonin
gastric emptying = assay: Gastric emptying of a test meal in fasted rats; assay type: in vivo; conditions: fasted rat, 9.0 mg/kg IP 30 min before test meal; measured 60 min after the meal
Method: The procedure used to test compounds of the present invention for gastric motility enhancing activity was that of Droppleman et al, J. Pharmacol. Methods, 4, 227(1980). Each animal was dosed intraperitoneally (9.0 mg/kg) with a test compound or control. After 30 minutes each animal was given 3 ml of a methylcellulose-based test meal formulation. Sixty minutes after administration of the test meal, each animal was killed by cervical dislocation, and the stomach was removed and weighed. The stomach was cut open, rinsed and dried, and reweighed. The difference between the full and empty weights (amount of meal remaining in stomach) was subtracted from the original test meal weight to determine the meal amount emptied from the stomach during the test period.

emesis = conditions: reported by Mikhlina et al, Khim-Farmastsevt. Zh. 10 (1976); cited from earlier work
dopamine D2 -receptor = conditions: reported in USSR Pat. No. SU-414-261; cited from earlier work
[2] = tested on: exploratory light/dark behavior; assay: Anxiolytic model, two-compartment exploratory light/dark test in mice; assay type: in vivo; conditions: mouse, 10 mg/kg IP, 5 minute period; vehicle control 29
Description: The method has been described by Young and Johnson, Soc. Neurosci. Abs., 1988, 14, 207 and is a modification of the procedures described by Costall and Naylor, Brit. J. Pharmacol. 1988, 93, 985-993; and Crawley, Pharmacol. Biochem. and Behav. 1981, 15, 695-699. A two compartment light-dark activity monitoring device (Digiscan Model RXWZCM16, Omnitech Electronics,Inc., Columbus, Ohio) is used. A 90W light source located 30 cm above the box provides light to the apparatus. Behavioral testing was conducted in a sound attenuated, darkened room illuminated with a red light (25W red bulb) only.
Each animal (mouse) received a dose of either the test, reference, or control article. The mouse was placed at the center of the illuminated area and its behavioral activity tallied over a 5 minute period by use of a Digiscan analyzer. Behavioral variables recorded include: the time spent in the lit and dark areas, the number of rearings in the lit and dark areas, the number of locomotor activity counts in the lit and dark areas, the number of transitions between the lit and dark or dark and lit areas, rearing time in the lit and dark areas, the latency to make the first transition from the lit to the dark areas, locomotor time in the lit and dark areas, and resting time in the lit and dark areas. Appropriate statistical analyses for each measure were performed. […]

| Compound | inhibition in vivo at 1 mg/kg (cisplatin-induced emesis) | further results |
| --- | --- | --- |
| COc1cc(N)c(Cl)cc1C(=O)NC1C2CCN(CC2)C1CN1CCCCC1 (stereo not drawn) [Example IV, 4-Amino-5-chloro-2-methoxy-N-[2-(1-piperidinylmethyl)-1-azabicyclo[2.2.2]oct-3-yl]benzamide] | 94% | pA2 against serotonin-induced contractions [1]: 6.6 |
| COc1cc(N)c(Cl)cc1C(=O)NC1C2CCN(CC2)C1CN1CCCC1 (stereo not drawn) [VI, 4-Amino-5-chloro-2-methoxy-N-[2-(1-pyrrolidinylmethyl)-1-azabicyclo[2.2.2]oct-3-yl]benzamide] | 87% | % change in meal emptied (gastric emptying): +33% |
| COc1ccc(S(N)(=O)=O)cc1C(=O)NC1CN2CCC1CC2 (stereo not drawn) [5-aminosulfonyl-N-(1-azabicyclo-[2.2.2]oct-3-yl)-2-methoxybenzamide] | – | anti-emetic activity (emesis): not to have anti-emetic activity; neuroleptic activity (dopamine D2 -receptor): neuroleptic activity |
| CNc1cc(OC)c(C(=O)NC2C3CCN(CC3)C2CN(C)C)cc1Cl (stereo not drawn) [III, 5-Chloro-N-[2-[(dimethylamino)methyl]-1-azabicyclo[2.2.2]oct-3-yl]-2-methoxy-4-(methylamino)benzamide] | 73% | – |
| 2-(1-Piperidinylmethyl)-1-azabicyclo[2.2.2]oct-3-yl 1-methyl-1H-indole-3-carboxylate cis isomer [XIII (cis isomer)] | – | % inhibition of cisplatin-induced emesis (cisplatin-induced emesis; dog, 1.0 mg/kg IV given 60 min after cisplatin 3.0 mg/kg IV, emetic episodes recorded for 5 hours): 34% |
| CSCCOc1cc(N)c(Cl)cc1C(=O)NC1C2CCN(CC2)C1CN(C)C (stereo not drawn) [II, 4-Amino-5-chloro-N-[2-[(dimethylamino)methyl]-1-azabicyclo[2.2.2]oct-3-yl]-2-[2-(methylthio)ethoxy]benzamide] | 47% | – |
| COc1cc(N)c(Cl)cc1C(=O)NC1C2CCN(CC2)C1CN(C)C (stereo not drawn) [Example I, 4-Amino-5-chloro-N-[2-[(dimethylamino)methyl]-1-azabicyclo[2.2.2]oct-3-yl]-2-methoxy-benzamide] | 96% | % change in meal emptied (gastric emptying): +36% |
| CNc1cc(OC)c(C(=O)NC2C3CCN(CC3)C2CN2CCCC2)cc1Cl (stereo not drawn) [VII, 5-Chloro-2-methoxy-4-(methylamino)-N-[2-(1-pyrrolidinylmethyl)-1-azabicyclo[2.2.2]oct-3-yl]benzamide] | 87% | – |
| COc1cc(N)c(Cl)cc1C(=O)NC1C2CCN(CC2)C1CN1CCOCC1 (stereo not drawn) [XI, 4-Amino-5-chloro-2-methoxy-N-[2-(4-morpholinylmethyl)-1-azabicyclo[2.2.2]oct-3-yl]benzamide] | 21% | – |
| CNc1cc(OC)c(C(=O)NC2C3CCN(CC3)C2CN2CCCCC2)cc1Cl (stereo not drawn) [Example V, 5-Chloro-2-methoxy-4-(methylamino)-N-[2-(1-piperidinylmethyl)-1-azabicyclo[2.2.2]oct-3-yl]benzamide] | 99% | % Time Spent In Lit Area [2]: 51% |
